According to patent US20230225988A1, “ANTIVIRAL USE OF CALIXARENES” (CEBINA GmbH, priority 2020, published 2023):
Read-outs that look alike come from different tables or passages of the source.

What was measured:
SARS-CoV-2 [1] = test: PCR quantification of SARS-CoV-2 viral particles in supernatants of infected Vero E6 cells; conditions: for viral particle number, Sample #1 / viral particle number, Sample #2 / viral particle number, Sample #3: Vero E6, MOI 0.01; for viral particle number, average: average of triplicate
influenza H1N1 [2] = format: cell-based; conditions: CX-1 500 μM apical
SARS-CoV-2 [3] = test: Microscopic examination of the cytopathogenic effect in SARS-CoV-2 infected Vero E6 cells
[4] = system: human nasal epithelial cells (MucilAir Pool); conditions: non-infected cells, LDH release from basal wash
influenza H1N1 [5] = format: cell-based; conditions: day 4 post infection, CX-1 500 μM versus buffer treated cells (FIG. 5)
HCoV 229E = conditions: Geller et al., Antiviral Research 2010; cited from earlier work
[6] = CX-1 500 μM, 24 h post-infection, prophylactic setting
[7] = CX-1 500 μM, 48 h post-infection, prophylactic setting
[8] = 24 h post-infection, versus buffer treated cells (FIG. 4 panel A)
[9] = 48 h post infection, versus buffer treated cells (FIG. 4 panel B)

Compound	reduction in viral genome copy number (SARS-CoV-2 [1]; 50 μM CX-1, preventive setting (FIG. 3)) [%]	viral particle number, Sample #1 (SARS-CoV-2 [1]; [6]) [viral particle number/μl]	viral particle number, Sample #2 (SARS-CoV-2 [1]; [6]) [viral particle number/μl]	viral particle number, Sample #3 (SARS-CoV-2 [1]; [6]) [viral particle number/μl]	viral particle number, average (SARS-CoV-2 [1]; [6]) [viral particle number/μl]	viral particle number, Sample #1 (SARS-CoV-2 [1]; [7]) [viral particle number/μl]	viral particle number, Sample #2 (SARS-CoV-2 [1]; [7]) [viral particle number/μl]	viral particle number, Sample #3 (SARS-CoV-2 [1]; [7]) [viral particle number/μl]	viral particle number, average (SARS-CoV-2 [1]; [7]) [viral particle number/μl]	potency (reduction in viral particles) (SARS-CoV-2 [1]; CX-1 500 μM, 48 h post-infection, prophylactic setting, versus virus only) [%]	reduction in viral genome copy number (SARS-CoV-2 [1]; lower dilutions of CX-1, preventive setting, versus infected non-treated control (FIG. 3))	decrease in viral genome copy (influenza H1N1 [2]; [8]) [log]	reduction in viral genome copy (influenza H1N1 [2]; [8]) [%]	decrease in viral genome copy (influenza H1N1 [2]; [9]) [log]	reduction in viral genome copy (influenza H1N1 [2]; [9]) [%]	protection of infected cells from dying (cytopathogenic effect, microscopy) (SARS-CoV-2 [3]; prophylactic setting, 500, 100 or 20 μM, 48 h post infection (FIG. 1))	protection of infected cells from dying (cytopathogenic effect, microscopy) (SARS-CoV-2 [3]; therapeutic setting, CX-1 added after 30 min infection, 48 h post infection (FIG. 2))	cytotoxicity [4]	cilia beating frequency (influenza H1N1 [5])	activity against HCoV 229E (HCoV 229E)
O=S(=O)(O)c1cc2c(O)c(c1)Cc1cc(S(=O)(=O)O)cc(c1O)Cc1cc(S(=O)(=O)O)cc(c1O)Cc1cc(S(=O)(=O)O)cc(c1O)C2 [CX-1, 5,11,17,23-sulfonato-25,26,27,28-tetrahydroxycalix[4]arene]	30	0.00	0.00	1.48	0.49	11.10	15.00	8.63	11.57	95	over 90%	−0.9	88	~0.8	80.5	significantly protected from dying	significantly protected from dying	no cytotoxicity	significantly higher	–
O=S(=O)(O)c1cc2c(O)c(c1)Cc1cc(S(=O)(=O)O)cc(c1O)Cc1cc(S(=O)(=O)O)cc(c1O)Cc1cc(S(=O)(=O)O)cc(c1O)C2 [C[4]S, tetra-para-sulfonato-calix[4]arene]	–	–	–	–	–	–	–	–	–	–	–	–	–	–	–	–	–	–	–	only very weak activity
1,3-bis(bithiazolyl)-tetra-para-sulfonato-calix[4]arene [C[4]S-BTZ]	–	–	–	–	–	–	–	–	–	–	–	–	–	–	–	–	–	–	–	very effective
